Consider 21 molecules from PubChem BioAssay AID256 (DTP/NCI, 2004).

“And” between values parts separate entries of the source, which are not always exact repeats. Equal values may be shown once. Toxic doses and inconclusive results are not listed.

The test relates to CD2F1 mice, L1210 leukemia ip, survival T/C. Kind of test: NCI In Vivo Anticancer Drug Screen. Data for tumor model L1210 Leukemia (intraperitoneal) in CD2F1 (CDF1) mice. To be noted: endpoint: mean survival time, higher = longer survival. Summed up:
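Tumor-bearing mice (transplanted tumor) were split into treated and vehicle control groups, and the measured endpoint of each treated group was divided by that of its vehicle controls.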

The mark [1] stands for this setting: dose: 100.0 mg/kg/injection, schedule: Q04DX003 (ip), vehicle: Klucel (hydroxypropylcellulose) (HPC).
Where [2] appears, read: dose: 200.0 mg/kg/injection, schedule: Q04DX003 (ip), vehicle: Klucel (hydroxypropylcellulose) (HPC).
Setting [3] is: dose: 400.0 mg/kg/injection, schedule: Q04DX003 (ip), vehicle: Klucel (hydroxypropylcellulose) (HPC).
The mark [4] stands for this setting: dose: 100.0 mg/kg/injection, schedule: Q04DX003 (ip), vehicle: saline with Tween-80.
The mark [5] stands for this setting: dose: 200.0 mg/kg/injection, schedule: Q04DX003 (ip), vehicle: saline with Tween-80.
The mark [6] stands for this setting: dose: 400.0 mg/kg/injection, schedule: Q04DX003 (ip), vehicle: saline with Tween-80.
Setting [7] is: dose: 50.0 mg/kg/injection, schedule: Q01DX009 (ip), vehicle: saline with Tween-80.
The mark [8] stands for this setting: dose: 100.0 mg/kg/injection, schedule: Q01DX009 (ip), vehicle: saline with Tween-80.
The mark [9] stands for this setting: dose: 200.0 mg/kg/injection, schedule: Q01DX009 (ip), vehicle: saline with Tween-80.
Where [10] appears, read: dose: 400.0 mg/kg/injection, schedule: Q01DX009 (ip), vehicle: saline with Tween-80.
Setting [11] is: dose: 100.0 mg/kg/injection, schedule: Q04DX003 (ip), vehicle: saline.
[12] abbreviates: dose: 200.0 mg/kg/injection, schedule: Q04DX003 (ip), vehicle: saline.
[13] abbreviates: dose: 12.5 mg/kg/injection, schedule: Q01DX009 (ip), vehicle: saline.
[14] abbreviates: dose: 25.0 mg/kg/injection, schedule: Q01DX009 (ip), vehicle: saline.

On to `O=C(CCl)N1CCc2ccccc21`, for which the T/C is, setting by setting: under setting [1], 98 % of control; under setting [2], 103 % of control; under setting [3], 97 % of control.

For `CC1(C)COC(c2ccccc2Br)=N1`, the T/C reads like this: (dose: 100.0 mg/kg/injection, schedule: Q01DX001 (ip), vehicle: saline with Tween-80) 109 % of control; (dose: 200.0 mg/kg/injection, schedule: Q01DX001 (ip), vehicle: saline with Tween-80) 101 % of control; (dose: 400.0 mg/kg/injection, schedule: Q01DX001 (ip), vehicle: saline with Tween-80) 101 % of control.

Consider `N=c1c2ncn(C3CCCC3)c2ncn1OCc1ccccc1`, for which, under “dose: 100.0 mg/kg/injection, schedule: Q01DX001 (ip), vehicle: other”, the T/C was 98 % of control.

Regarding `CN(C)S(=O)(=O)C#Cc1ccccc1`, the T/C runs as follows: under setting [4], 104 % of control; under setting [5], 97 % of control; under setting [6], 102 % of control.

Take `CC1(CC2SCCCS2)SCCCS1`: the T/C (dose: 25.0 mg/kg/injection, schedule: Q04DX002 (ip), vehicle: saline with Tween-80) is 96 % of control; the T/C (dose: 50.0 mg/kg/injection, schedule: Q04DX002 (ip), vehicle: saline with Tween-80) is 93 % of control; the T/C (dose: 100.0 mg/kg/injection, schedule: Q04DX002 (ip), vehicle: saline with Tween-80) is 96 % of control; the T/C (dose: 200.0 mg/kg/injection, schedule: Q04DX002 (ip), vehicle: saline with Tween-80) was 86 % of control.

On to `CC(C)C(Br)C(=O)NCC(=O)NCC(=O)O` (configuration not stated), for which the T/C is 101 % of control under setting [4], 100 % of control under setting [5] and 92 % of control under setting [6].

Regarding `CNC(C1CCCCC1)C(C)OC(=O)c1ccc(N)cc1` (configuration not stated), the T/C (dose: 75.0 mg/kg/injection, schedule: Q01DX001 (ip), vehicle: saline) was 100 % of control.

In the case of `COCC/C=C/CCl`, the T/C by setting is: (dose: 25.0 mg/kg/injection, schedule: Q01DX009 (ip), vehicle: saline with Tween-80) 100 % of control; under setting [7], 92 % of control; under setting [8], 100 % of control.

Turning to `OC(CCc1ccccc1)(C(F)(F)Cl)C(F)(F)Cl`, the T/C is, setting by setting: under setting [4], 98 % of control; under setting [5], 89 % of control; under setting [6], 92 % of control.

As for `CCCCCCCCCCCCCCCC(=O)NCCOC(C)=O`, the T/C is 89 % of control under setting [7]; 92 % of control under setting [8]; 92 % of control under setting [4]; 93 % of control under setting [9]; 95 % of control under setting [5]; 97 % of control under setting [6].

Regarding `CC(C)OC(=O)Nc1ccc(F)c(F)c1`, the T/C reads like this: under setting [8], 95 % of control; under setting [9], 98 % of control; under setting [10], 114 % of control.

Regarding `CCOC(=O)/C(C#N)=C1/C=CC=CN1`, the T/C is, setting by setting: under setting [8], 98 % of control; under setting [4], 102 % of control; under setting [9], 102 % of control; under setting [5], 110 % of control; under setting [10], 100 % of control; under setting [6], 103 % of control.

With `O=C1c2ccccc2C(=O)C1(Cl)C(Cl)c1ccc([N+](=O)[O-])cc1` (configuration not stated), the T/C under setting [1] is 100 % of control, the T/C under setting [2] is 106 % of control and the T/C under setting [3] was 106 % of control.

In the case of `NC(CSS(=O)(=O)CC(N)C(=O)O)C(=O)O` (configuration not stated), the T/C under setting [11] is 103 % of control; the T/C under setting [12] is 109 % of control; the T/C (dose: 400.0 mg/kg/injection, schedule: Q04DX003 (ip), vehicle: saline) is 103 % of control.

In the case of `CCCC(CC)(C[NH-])C[NH-].[Cl][Pt+2][Cl]`, the T/C is 120 % of control and 109 % of control (dose: 6.25 mg/kg/injection, schedule: Q04DX003 (ip), vehicle: saline); 121 % of control and 109 % of control (dose: 12.5 mg/kg/injection, schedule: Q04DX003 (ip), vehicle: saline); 114 % of control (dose: 25.0 mg/kg/injection, schedule: Q04DX003 (ip), vehicle: saline); 158 % of control under setting [11]; 114 % of control and 105 % of control under setting [12].

Turning to `COc1ccc(C(=O)CC(C(=O)O)c2ccc(OC)c(OC)c2)cc1OC` (configuration not stated), the T/C reads like this: under setting [4], 98 % of control; under setting [5], 102 % of control; under setting [6], 91 % of control.

With `COc1ccc2ccc[n+](C)c2c1`, the T/C reads like this: (dose: 6.25 mg/kg/injection, schedule: Q01DX009 (ip), vehicle: saline) 94 % of control; (dose: 6.25 mg/kg/injection, schedule: Q04DX003 (ip), vehicle: saline with Tween-80) 98 % of control; under setting [13], 104 % of control; (dose: 12.5 mg/kg/injection, schedule: Q04DX003 (ip), vehicle: saline with Tween-80) 101 % of control; under setting [14], 107 % of control; (dose: 25.0 mg/kg/injection, schedule: Q04DX003 (ip), vehicle: saline with Tween-80) 101 % of control.

In the case of `Nc1nc2c(c(=O)[nH]1)N1C(=O)N(c3ccc(C(=O)NC(CCC(=O)O)C(=O)O)cc3)CC1CN2` (configuration not stated), the T/C was 107 % of control (dose: 100.0 mg/kg/injection, schedule: Q01DX001 (ip), vehicle: sodium bicarbonate); 113 % of control (dose: 200.0 mg/kg/injection, schedule: Q01DX001 (ip), vehicle: sodium bicarbonate); 109 % of control (dose: 400.0 mg/kg/injection, schedule: Q01DX001 (ip), vehicle: sodium bicarbonate).

In the case of `CCCCC(CC)COP(=O)(CC(CC)CCCC)OCC(CC)CCCC` (configuration not stated), the T/C under setting [11] is 86 % of control and the T/C under setting [12] is 94 % of control.

As to `O=N[O-].[Co].[NH2-].[NH2-].[NH2-].[NH2-].[NH2-]`, the T/C was 103 % of control under setting [13]; 93 % of control (dose: 25.0 mg/kg/injection, schedule: Q01DX003 (ip), vehicle: saline); 103 % of control under setting [14]; 100 % of control (dose: 50.0 mg/kg/injection, schedule: Q01DX003 (ip), vehicle: saline); 105 % of control (dose: 50.0 mg/kg/injection, schedule: Q01DX009 (ip), vehicle: saline).

As to `COC(=O)CCC(=O)c1ccc(OC)cc1`, the T/C is, setting by setting: (dose: 100.0 mg/kg/injection, schedule: Q01DX001 (ip), vehicle: alcohol) 92 % of control; (dose: 200.0 mg/kg/injection, schedule: Q01DX001 (ip), vehicle: alcohol) 92 % of control; (dose: 400.0 mg/kg/injection, schedule: Q01DX001 (ip), vehicle: alcohol) 101 % of control.
